Source: patent US12559523B2, “Compositions comprising chemerin analogs and methods of use” (OKYO Pharma Limited, priority 2019, dated 2026)
Non-standard residues stand in square brackets, D forms with d. Residues, ends and D or L forms follow the SMILES beside them. *: point of attachment. PEG8 = NCCOCCOCCOCCOCCOCCOCCOCCOCCC(=O)O; Palmitoyl = CCCCCCCCCCCCCCCC(=O)*; Tic = O=C(O)[C@@H]1Cc2ccccc2CN1; Nle = CCCC[C@H](N)C(=O)O; Nva = CCC[C@H](N)C(=O)O

Columns and labels:
[1] = system: CD4+ T cells; assay: Immunohistochemistry count of CD4+ T cells in conjunctival epithelium, dry eye; type: in vivo, mouse; conditions: FIG. 3 and 5
Method: In FIGS. 3 and 5, immunohistochemistry is used to detect CD4+ T cells. Enucleated mouse eyes with intact conjunctiva were suspended in optimal cutting temperature (OCT) compound and flash frozen in liquid nitrogen. Immunohistochemistry was performed on six micrometer frozen sections to detect and count the number of cells in conjunctival epithelium that stained positively for CD4, a biotinylated secondary antibody and NovaRED peroxidase. Positively stained cells were counted in the conjunctiva using Nikon imaging software.

[2] = system: conjunctival goblet cells (GC); assay: Conjunctival goblet cell density measurement, dry eye; type: in vivo, mouse; conditions: superior and inferior conjunctiva; FIG. 4 and 6
Method: In FIGS. 4 and 6, conjunctival goblet cells (GC) measurement is performed as follows. Enucleated mouse eyes with intact conjunctiva were fixed in 10% formalin and embedded in paraffin. Six-micrometer sections were stained with periodic acid-Schiff reagent.

SMILES	dry eye induced CD4+ T-cells infiltration [1]	dry eye induced loss of goblet cell density [2]
CCCCCCCCCCCCCCCC(=O)NCCOCCOCCOCCOCCOCCOCCOCCOCCC(=O)NCC(=O)NCC(=O)N[C@H](Cc1ccc(O)cc1)C(=O)N[C@@H](Cc1ccccc1)C(=O)N[C@@H](CC(C)C)C(=O)N1CCC[C@H]1C(=O)N[C@H](CO)C(=O)N[C@@H](CCC(N)=O)C(=O)N[C@@H](Cc1ccccc1)C(=O)N[C@H](C)C(=O)N1Cc2ccccc2C[C@H]1C(=O)N[C@@H](CO)C(=O)O [OK-101, Gly-Gly-dTyr-Phe-Leu-Pro-dSer-Gln-Phe-dAla-Tic-Ser] ({Palmitoyl-PEG8}-GG[dY]FLP[dS]QF[dA][Tic]S-OH)	significantly reduced	normalized
CCCCCCCCCCCCCCCC(=O)NCCOCCOCCOCCOCCOCCOCCOCCOCCC(=O)N[C@@H](CCC)C(=O)NCC(=O)N[C@H](Cc1ccc(O)cc1)C(=O)N[C@@H](Cc1ccccc1)C(=O)N[C@@H](CCCC)C(=O)N1CCC[C@H]1C(=O)N[C@H](CO)C(=O)N[C@@H](CCC(N)=O)C(=O)N[C@@H](Cc1ccccc1)C(=O)N[C@H](C)C(=O)N1Cc2ccccc2C[C@H]1C(=O)N[C@H](C)C(=O)O [OK-113, NorV-Gly-dTyr-Phe-Nle-Pro-dSer-Gln-Phe-dAla-Tic-dAla] ({Palmitoyl-PEG8}-[Nva]G[dY]F[Nle]P[dS]QF[dA][Tic][dA]-OH)	significantly reduced	normalized
